{"source": "paper PMC8072975", "about": "(Pharmaceutics, 2021)", "key": {"[1]": {"conditions": "mean ± SD, n = 3; for Stability 4℃, 5-D (%): Table S1", "procedure": "The HPLC analyses were performed on an Agilent Technology 1260 infinity system (Agilent Technology Inc., Waldbronn, Germany) equipped with an Agilent ChemStation software Rev. B.04.03-SP2 (105), a binary pump, a degasser, an autosampler, a thermostatted sample reservoir, a thermostatted column compartment, and a UV-detector. A Capcell-pak C18 UG120 column (4.6 mm × 250 mm, 5 μm, Osaka Soda Co. Ltd., Osaka, Japan) was used as an analytical column. The mobile phase was composed of 10 mM NaH2PO4 (pH 1.61–1.63) and 100% ACN (78:22, v/v) with isocratic elution at pH of 2.0–2.1 using a flow rate of 1.0 mL/min. The sample reservoir and column oven were maintained at 4 °C and 25 °C, respectively. The analytes were detected using a UV detector with the wavelength set at 220 nm, and the injection volume was 25 μL.\n(§1) The aqueous supernatant (approximately 100 μL) was prepared as the final sample extract after rinsing with 600 μL of chloroform.\n(§2) The recovery of the sample preparation method was estimated by dividing the peak area for the pre-spiked sample by the peak area for the post-spiked sample, multiplied by 100. […] Short- and long-term stability was evaluated after storage at 4 °C for 36 h and −70 °C for 24 days. Freeze-thaw stability was assessed with three freeze-thaw cycles at −70 °C. The post-preparation stability was also examined at 4 °C for 24 h."}, "SARS-CoV-2 (COVID-19)": {"tested_on": "SARS-CoV-2 (COVID-19)", "conditions": "read-out: Half-maximal inhibitory concentration (IC50) against SARS-CoV-2; in vitro; preventing viruses' entrance into the cytoplasm; cited from earlier work"}, "[2]": {"assay": "Post-preparation stability of teicoplanin and IS mixture (processed plasma extract)", "assay_type": "physicochemical, human", "conditions": "mean ± SD, n = 3", "procedure": "as §1, §2"}, "[3]": {"conditions": "cited from earlier work"}}, "note": "Like-named read-outs stand apart in the source and are kept apart here.", "data": [{"substance": "polymyxin B [IS]", "values": [{"measurement": "Stability −70 °C, 24-d (%)", "setting": "[1]; long-term, human plasma, IS 100 mg/L, peak area of polymyxin B2, HPLC-UV 220 nm", "result": "112.2 ± 8.74", "unit": "%"}, {"measurement": "Stability 4 °C, 36 h (%)", "setting": "[1]; short-term, human plasma, IS 100 mg/L (polymyxin B mixture), peak area of polymyxin B2, HPLC-UV 220 nm", "result": "96.19 ± 2.79", "unit": "%"}, {"measurement": "Stability Freeze-Thaw (%)", "setting": "[1]; three freeze-thaw cycles at −70 °C, human plasma, IS 100 mg/L, peak area of polymyxin B2, HPLC-UV", "result": "111.5 ± 7.36", "unit": "%"}]}, {"substance": "teicoplanin", "values": [{"measurement": "IC50", "setting": "SARS-CoV-2 (COVID-19)", "result": 1660, "unit": "nM"}]}, {"substance": "teicoplanin A2-2", "values": [{"measurement": "Stability Post-preparation, 7-D (%)", "setting": "[2]; Table S1, H, 500.0 mg/L", "result": "102.58 ± 7.60", "unit": "%"}, {"measurement": "Stability Post-preparation, 7-D (%)", "setting": "[2]; Table S1, L, 7.81 mg/L", "result": "108.56 ± 24.10", "unit": "%"}, {"measurement": "Stability Post-preparation, 7-D (%)", "setting": "[2]; Table S1, M, 62.5 mg/L", "result": "105.94 ± 2.00", "unit": "%"}, {"measurement": "Stability 4℃, 5-D (%)", "setting": "[1]; H, 500.0 mg/L", "result": "101.84 ± 1.59", "unit": "%"}, {"measurement": "Stability 4℃, 5-D (%)", "setting": "[1]; L, 7.81 mg/L", "result": "100.96 ± 11.32", "unit": "%"}]}, {"substance": "vancomycin", "values": [{"measurement": "Half-life", "setting": "[3]", "result": "~10", "unit": "h"}]}]}
